Patent publication US20190247373A1, “METHODS FOR TREATING FIBROSIS” (CHILDREN'S HOSPITAL MEDICAL CENTER, priority 2016, published 2019)

How the values were obtained:
mice = experiment: Mouse model of bleomycin-induced pulmonary fibrosis (repetitive intradermal bleomycin); format: in vivo; settings: bleomycin 6 units per kg intradermally, 5 days a week for 4 wks; vs saline-treated controls
Excerpt: FIG. 5: Mouse model of bleomycin-induced pulmonary fibrosis. Masson's trichrome-stained lung sections show extensive collagen deposition in mice treated intradermally with bleomycin (6 U/kg body weight; 5 days/week for 4 weeks) (B) compared to saline (A).
We developed an alternative mouse model of bleomycin-induced pulmonary fibrosis. For these experiments, we injected mice (N=5 mice/group) intradermally with bleomycin (6 units per kg body weight) for 5 days in a week for a total of 4 wks.

[1] = treatment of idiopathic pulmonary fibrosis; cited from earlier work
IPF fibroblasts = experiment: Gene expression in primary fibroblasts isolated from fibrotic lesions of IPF lungs; format: cell-based, human; settings: naltrexone 10 μM, 24 hrs, vs vehicle
Description: FIG. 10: Naltrexone treatment attenuates ECM and proliferation gene expression in IPF fibroblasts. Expression of ECM genes (FN1, Col3α, and αSMA) and proliferation gene (Aurka) was attenuated in IPF fibroblasts treated with naltrexone (10 μM) compared to vehicle treatment for 24 hrs in IPF fibroblasts. Unpaired t-test (N=3/group; *P<0.05).
We treated primary fibroblasts isolated from fibrotic lesions of IPF lungs. […] These findings are consistent with a mechanism of action for opioid receptor inhibitors (e.g., naltrexone) that influences (e.g., decreases) ECM and proliferation.

TGFα mice [2] = experiment: Naltrexone therapy in TGFα-induced pulmonary fibrosis: body weight, lung weight, lung function (FlexiVent); format: in vivo; settings: 80 mg/kg b.i.d. for three weeks, started after three weeks on Dox, vs vehicle
Description: (§1) FIG. 7: Naltrexone therapy attenuates body weight loss in pulmonary fibrosis. (A) Experimental schemata of naltrexone therapy study in vivo. Three groups of mice on Dox for three weeks were treated with either vehicle or naltrexone (80 mg/kg bodyweight, b.i.d) and then sacrificed after three weeks of treatment while continued on Dox. (B) The loss of body weight was attenuated with naltrexone therapy compared to vehicle treatment in TGFα mice. One-Way ANOVA (N=4−6/group; *P<0.05).
as §1, with “8:” for “7:”, “increase in lung weights” for “body weight loss”, “fibrosis.” for “fibrosis. (A) Experimental schemata of naltrexone therapy study in vivo.”, “Dox.” for “Dox. (B)”, “increase in lung weights” for “loss of body weight”
FIG. 9: Naltrexone therapy attenuates lung function decline in pulmonary fibrosis. Three groups of mice on Dox for three weeks were treated with either vehicle or naltrexone (80 mg/kg bodyweight, b.i.d) and then sacrificed after three weeks of treatment while continued on Dox. Decrease in the lung function (A,
Resistance; B, Compliance; C, Elastance) was attenuated with naltrexone therapy compared to vehicle treatment in TGFα mice. One-Way ANOVA (N=4−6/group; *P<0.05).
(§2) To probe mechanisms of EGFR-mediated lung remodeling, we generated transgenic mice in which TGFα was conditionally overexpressed in the lung epithelium using the CCSP rtTA promoter. When doxycycline (Dox) was administered, overexpression of TGFα in the adult mice (N=4−5 mice/group) caused progressive and extensive adventitial, interstitial, and subpleural fibrosis. Several histological features of fibrosis in the TGFα model were found in the pathologic lesions of IPF, including subpleural fibrosis radiating into the adjoining interstitium and the differentiation of myofibroblasts (FIG. 3). Physiologically, the mice developed progressive cachexia and lung-function decline with gene expression profiles similar to human IPF. The proenkephalin A (PENK) gene that codes for several opioid peptides was elevated in fibrotic lungs during TGFα-induced pulmonary fibrosis (FIG. 4).
Naltrexone therapy attenuates body weight loss in pulmonary fibrosis. […] Three groups of mice (N=4−6 mice/group) were on Dox for three weeks, and were then treated with either vehicle or naltrexone (80 mg/kg bodyweight, b.i.d) along with Dox for another three weeks; six weeks after being on DOX and three weeks after being treated with vehicle or naltrexone, the mice were sacrificed. The down arrow represents initiation of the vehicle or naltrexone treatment and the horizontal arrows indicate the duration of the vehicle or naltrexone treatment (three weeks while continuing to administer Dox).
Naltrexone therapy attenuates increase in lung weights in pulmonary fibrosis. Mice (N=4−6 mice/group) were on Dox for three weeks, and were then treated with either vehicle or naltrexone (80 mg/kg bodyweight, b.i.d) along with Dox for another three weeks; six weeks after being on DOX and three weeks after being treated with vehicle or naltrexone, the mice were sacrificed (See, e.g., FIG. 7A). […] In TGFα mice, increases in lung weight are due to pulmonary fibrosis.
Naltrexone therapy attenuates lung function decline in pulmonary fibrosis. […]

TGFα mice [3] = experiment: Short-term naltrexone therapy in TGFα-induced pulmonary fibrosis: total lung RNA gene expression; format: in vivo; settings: 10 mg/kg or 50 mg/kg b.i.d. for one week, started after two weeks on Dox; vs vehicle
Description: FIG. 6: Naltrexone therapy attenuates ECM and proliferative gene expression in pulmonary fibrosis. (A) Experimental schemata of naltrexone therapy study in vivo. Three groups of mice on Dox for two weeks were treated with either vehicle or naltrexone (10 mg/kg or 50mg/kg bodyweight, b.i.d) and sacrificed after a week of treatment while continued on Dox. Total lung RNA was analyzed for the expression of: (B) ECM genes (FN1, Col5α, and Col6α) and (C) proliferation genes (Aurka, IL-6, and Calcb). One-Way ANOVA (N=4/group; *P<0.05).
as §2
Naltrexone therapy attenuates ECM and proliferative gene expression in pulmonary fibrosis. […] Three groups of mice (N=4 mice/group) on Dox for two weeks were treated with either vehicle or naltrexone (10 mg/kg or 50 mg/kg bodyweight, b.i.d) and sacrificed after a week of treatment while continued on Dox. The down arrow represents initiation of the vehicle or drug treatment (at two weeks on Dox) and the horizontal arrows indicate the duration of vehicle or drug treatment (one week while continuing to administer Dox). […] The RNA from the three ECM genes decreased when treated with naltrexone. […] The RNA from the three proliferation genes decreased when treated with naltrexone.

In the case of bleomycin, the “Increase in airway resistance” value (mice) is reported as “greater than two-fold” and the “Increase in lung hydroxyproline levels” value (mice) is reported as “greater than two-fold”.
For `Cc1ccc(=O)n(-c2ccccc2)c1` [pirfenidone], the Effect on mortality [1] is given as “neither pirfenidone nor nintedanib had any effect” and the “Effect on respiratory symptoms” value [1] is given as “no effect”.
For `O=C1CC[C@@]2(O)[C@H]3Cc4ccc(O)c5c4[C@@]2(CCN3CC2CC2)[C@H]1O5` [naltrexone, 17-(cyclopropylmethyl)-4,5α-epoxy-3,14-dihydroxymorphinan-6-one], the “Expression of ECM gene alpha smooth-muscle actin (αSMA)” value (IPF fibroblasts) was “inhibited”, the “Expression of ECM gene fibronectin 1 (FN1)” value (IPF fibroblasts) was “inhibited” and the “Expression of ECM gene procollagen 3α1 (Col3α)” value (IPF fibroblasts) was “inhibited”. The “Expression of proliferation gene Aurora kinase A (AURKA)” value (IPF fibroblasts) was “inhibited”, the “Dox-induced changes in lung function: Compliance” value (TGFα mice [2]; FlexiVent) was “reversed” and the “Dox-induced changes in lung function: Elastance” value (TGFα mice [2]; FlexiVent) was “reversed”. The “Dox-induced changes in lung function: Resistance” value (TGFα mice [2]; FlexiVent) was “reversed”, the “Increase in lung weights” value (TGFα mice [2]) was “attenuated” and the “Loss of body weight” value (TGFα mice [2]) was “attenuated”. The “Total lung RNA expression of ECM gene Collagen alpha 1 V (Col5α)” value (TGFα mice [3]) was “decreased”, the “Total lung RNA expression of ECM gene Collagen alpha 1 VI (Col6α)” value (TGFα mice [3]) was “decreased” and the “Total lung RNA expression of ECM gene Fibronectin (FN1)” value (TGFα mice [3]) was “decreased”. For the same compound, the “Total lung RNA expression of proliferation gene Aurora kinase A (Aurka)” value (TGFα mice [3]) was “decreased”, the “Total lung RNA expression of proliferation gene Calcitonin Related Polypeptide Beta (Calcb)” value (TGFα mice [3]) was “decreased” and the “Total lung RNA expression of proliferation gene Interleuken 6 (IL-6)” value (TGFα mice [3]) was “decreased”.
For `COC(=O)c1ccc2c(c1)NC(=O)/C2=C(\Nc1ccc(N(C)C(=O)CN2CCN(C)CC2)cc1)c1ccccc1` [nintedanib], the Effect on mortality [1] is given as “neither pirfenidone nor nintedanib had any effect”.
